# Reference: patent US6831092B1 (priority 1999, dated 2004)
# Where two headings read alike, the source gives them in different places.
# Legend:
# [1] = system: fungi of cucumber downy mildew; assay: Test on preventive effect against cucumber downy mildew; format: in vivo, fungi of cucumber downy mildew on cucumber (cultivar: Suyo)
# Description: Test on Preventive Effect Against Cucumber Downy Mildew
# Cucumber (cultivar: Suyo) was cultivated in a polyethylene pot having a diameter of 7.5 cm, and when the cucumber reached a two-leaf stage, two seedlings of the cucumber were sprayed with a drug solution having predetermined concentrations of sample compounds in an amount of 1, 000 l/ha by a spray gun. On the next day after the treatment, the cucumber was sprayed and inoculated with a zoosporangia suspension of fungi of cucumber downy mildew, and the cucumber was kept in a moist chamber at 20° C. for 18 hours. Then, it was kept in a constant temperature chamber of 20° C. for from 6 to 7 days, and the average area of lesions on the first leaves of the two seedlings was examined to find the incidence according to the following formula. Here, the average area of lesions in the non-treated plot was obtained in the same manner as the treated plot, except that the cucumber was sprayed with water instead of the drug solution by a spray gun. […]
# a: Average area of lesions in the treated plot b: Average area of lesions in the non-treated plot
# Further, the theoretical value can be calculated from the following Colby's formula:
# Theoretical value=(X×Y)/100
# X: Incidence (%) in the case of treatment with the compound No. 1 alone Y: Incidence (%) in the case of treatment with the compound a, b, c or d alone When the experimental values are lower than the theoretical values by Colby's formula, the pesticidal composition of the present invention has a synergistic effect of controlling pests. The theoretical values by Colby's formula in such cases are shown in parenthesis ( ) in Tables 1 to 4.
# [2] = system: fungi of tomato late blight; format: in vivo, fungi of tomato late blight on tomato (cultivar: Ponderosa)
compound,measurement,setting,value
"Cc1ccc(-c2c(Cl)nc(C#N)n2S(=O)(=O)N(C)C)cc1 [Compd. No. 1, 4-chloro-2-cyano-1-dimethylsulfamoyl-5-(4-methylphenyl)imidazole]",Incidence of cucumber downy mildew,"[1]; Compd. No. 1 0.06 ppm alone (Compd. d 0 ppm), Table 4",85%
same,Incidence of cucumber downy mildew,"[1]; Compd. No. 1 0.062 ppm alone (Compd. a 0 ppm), Table 1",87.6%
same,Incidence of cucumber downy mildew,"[1]; Compd. No. 1 0.062 ppm alone (Compd. b 0 ppm), Table 2",84.6%
same,Incidence of cucumber downy mildew,"[1]; Compd. No. 1 0.062 ppm alone (Compd. c 0 ppm), Table 3",25.4%
same,Incidence of cucumber downy mildew,"[1]; Compd. No. 1 0.125 ppm alone (Compd. a 0 ppm), Table 1",20.5%
same,Incidence of cucumber downy mildew,"[1]; Compd. No. 1 0.125 ppm alone (Compd. b 0 ppm), Table 2",56.7%
same,Incidence of cucumber downy mildew,"[1]; Compd. No. 1 0.125 ppm alone (Compd. c 0 ppm), Table 3",2.5%
same,Incidence of cucumber downy mildew,"[1]; Compd. No. 1 0.25 ppm alone (Compd. a 0 ppm), Table 1",5.1%
same,Incidence of cucumber downy mildew,"[1]; Compd. No. 1 0.25 ppm alone (Compd. c 0 ppm), Table 3",2.5%
same,Incidence of cucumber downy mildew,"[1]; Compd. No. 1 0.25 ppm alone (Compd. d 0 ppm), Table 4",5.0%
same,Incidence of cucumber downy mildew,"[1]; Compd. No. 1 0.5 ppm alone (Compd. d 0 ppm), Table 4",2.5%
same,Incidence of cucumber downy mildew,"[1]; Compd. No. 1 1 ppm alone (Compd. d 0 ppm), Table 4",0%
same,Incidence of tomato late blight,"[2]; Compd. No. 1 0.062 ppm alone (Compd. a 0 ppm), Table 5",91.3%
same,Incidence of tomato late blight,"[2]; Compd. No. 1 0.062 ppm alone (Compd. b 0 ppm), Table 6",90.6%
same,Incidence of tomato late blight,"[2]; Compd. No. 1 0.062 ppm alone (Compd. c 0 ppm), Table 7",65.6%
same,Incidence of tomato late blight,"[2]; Compd. No. 1 0.125 ppm alone (Compd. c 0 ppm), Table 7",37.5%
same,Incidence of tomato late blight,"[2]; Compd. No. 1 0.125 ppm alone (Compd. d 0 ppm), Table 8",100%
same,Incidence of tomato late blight,"[2]; Compd. No. 1 0.25 ppm alone (Compd. a 0 ppm), Table 5",25.6%
same,Incidence of tomato late blight,"[2]; Compd. No. 1 0.25 ppm alone (Compd. b 0 ppm), Table 6",78.1%
same,Incidence of tomato late blight,"[2]; Compd. No. 1 0.25 ppm alone (Compd. c 0 ppm), Table 7",21.9%
same,Incidence of tomato late blight,"[2]; Compd. No. 1 0.25 ppm alone (Compd. d 0 ppm), Table 8",100%
same,Incidence of tomato late blight,"[2]; Compd. No. 1 0.50 ppm alone (Compd. b 0 ppm), Table 6",50.0%
same,Incidence of tomato late blight,"[2]; Compd. No. 1 0.50 ppm alone (Compd. c 0 ppm), Table 7",6.3%
same,Incidence of tomato late blight,"[2]; Compd. No. 1 0.5 ppm alone (Compd. d 0 ppm), Table 8",83.4%
same,Incidence of tomato late blight,"[2]; Compd. No. 1 1.125 ppm alone (Compd. a 0 ppm), Table 5",69.2%
same,Incidence of tomato late blight,"[2]; Compd. No. 1 1.125 ppm alone (Compd. b 0 ppm), Table 6",87.5%
"Cc1ccc(C(C)NC(=O)[C@@H](NC(=O)OC(C)C)C(C)C)cc1 (stereo partly drawn) [Compd. b, isopropyl 2-methyl-1-((1-p-tolylethyl)carbamoyl)-(S)-propylcarbamate]",Incidence of cucumber downy mildew,"[1]; Compd. b 2 ppm alone (Compd. No. 1 0 ppm), Table 2",87.6%
same,Incidence of cucumber downy mildew,"[1]; Compd. b 4 ppm alone (Compd. No. 1 0 ppm), Table 2",67.0%
same,Incidence of cucumber downy mildew,"[1]; Compd. b 8 ppm alone (Compd. No. 1 0 ppm), Table 2",46.4%
same,Incidence of cucumber downy mildew,"[1]; Compd. b 16 ppm alone (Compd. No. 1 0 ppm), Table 2",15.5%
same,Incidence of tomato late blight,"[2]; Compd. b 1 ppm alone (Compd. No. 1 0 ppm), Table 6",100%
same,Incidence of tomato late blight,"[2]; Compd. b 4 ppm alone (Compd. No. 1 0 ppm), Table 6",71.9%
same,Incidence of tomato late blight,"[2]; Compd. b 8 ppm alone (Compd. No. 1 0 ppm), Table 6",46.9%
"CCC(C)(NC(=O)c1cc(Cl)c(C)c(Cl)c1)C(=O)CCl (centres unmarked) [Compd. c, 3.5-dichloro-N-(3-chloro-1-ethyl-1-methyl-2-oxopropyl)-4-methylbenzamide]",Incidence of cucumber downy mildew,"[1]; Compd. c 0.5 ppm alone (Compd. No. 1 0 ppm), Table 3",95.8%
same,Incidence of cucumber downy mildew,"[1]; Compd. c 1 ppm alone (Compd. No. 1 0 ppm), Table 3",71.2%
same,Incidence of cucumber downy mildew,"[1]; Compd. c 2 ppm alone (Compd. No. 1 0 ppm), Table 3",61.0%
same,Incidence of tomato late blight,"[2]; Compd. c 1 ppm alone (Compd. No. 1 0 ppm), Table 7",62.5%
same,Incidence of tomato late blight,"[2]; Compd. c 4 ppm alone (Compd. No. 1 0 ppm), Table 7",62.5%
same,Incidence of tomato late blight,"[2]; Compd. c 8 ppm alone (Compd. No. 1 0 ppm), Table 7",31.3%
"CCNc1nc(CC)c(C(=O)NC(C#N)c2cccs2)s1 (centres unmarked) [Compd. d, N-(a-cyano-2-thienyl)-4-ethyl-2-(ethylamino)-5-thiazole carboxyamide]",Incidence of cucumber downy mildew,"[1]; Compd. d 1 ppm alone (Compd. No. 1 0 ppm), Table 4",100%
same,Incidence of cucumber downy mildew,"[1]; Compd. d 8 ppm alone (Compd. No. 1 0 ppm), Table 4",15%
same,Incidence of cucumber downy mildew,"[1]; Compd. d 16 ppm alone (Compd. No. 1 0 ppm), Table 4",20%
same,Incidence of tomato late blight,"[2]; Compd. d 4 ppm alone (Compd. No. 1 0 ppm), Table 8",75%
same,Incidence of tomato late blight,"[2]; Compd. d 8 ppm alone (Compd. No. 1 0 ppm), Table 8",29.2%
same,Incidence of tomato late blight,"[2]; Compd. d 16 ppm alone (Compd. No. 1 0 ppm), Table 8",16.5%
"CSC1=N[C@@](C)(c2ccccc2)C(=O)N1Nc1ccccc1 [Compd. a, (S)-5-methyl-2-methylthio-5-phenyl-3-phenylamino-3.5-dihydroimidazole-4-one]",Incidence of cucumber downy mildew,"[1]; Compd. a 0.25 ppm alone (Compd. No. 1 0 ppm), Table 1",82.1%
same,Incidence of cucumber downy mildew,"[1]; Compd. a 0.5 ppm alone (Compd. No. 1 0 ppm), Table 1",66.7%
same,Incidence of cucumber downy mildew,"[1]; Compd. a 1 ppm alone (Compd. No. 1 0 ppm), Table 1",12.8%
same,Incidence of tomato late blight,"[2]; Compd. a 0.062 ppm alone (Compd. No. 1 0 ppm), Table 5",100%
same,Incidence of tomato late blight,"[2]; Compd. a 0.125 ppm alone (Compd. No. 1 0 ppm), Table 5",97.2%
same,Incidence of tomato late blight,"[2]; Compd. a 0.25 ppm alone (Compd. No. 1 0 ppm), Table 5",94.4%
same,Incidence of tomato late blight,"[2]; Compd. a 0.5 ppm alone (Compd. No. 1 0 ppm), Table 5",66.1%
same,Incidence of tomato late blight,"[2]; Compd. a 1 ppm alone (Compd. No. 1 0 ppm), Table 5",53.5%
